Laboratory results taken from US20100029604A1, “ANTIBACTERIAL COMBINATION AND ITS USE” (priority 2007, published 2010).
Like-named read-outs stand apart in the source and are kept apart here.

What was measured:
Format in all cases: cell-based
[1] = test system: E. coli SHV-5; assay: Synergy MIC, inhibitor at 4 μg/mL (Example 4); conditions: SHV-5, class A, inhibitor constant 4 μg/mL
[2] = test system: Escherichia coli TEM-9; assay: MIC, characterised β-lactamase producing strain (Example 5, Tables 5-7)
Procedure: (§1) The MIC experiments were performed in duplicate in 96-well microtiter plates using CAMHB. […] The bacterial suspension with final inoculum 10^5 CFU/mL was transferred to the test medium containing the antibacterial substances. In each well of a 96-well microtiter plate was combined 50 μL of bacterial inoculum, 50 μL of antibiotic dilutions (or media for determination of the MIC of the antibiotic in the absence of test compound). Each plate included 4 wells with no bacterial inoculum (negative control) and 4 wells with no test compound and no antibiotic (positive control). The plates were incubated at 35° C. for 24 h. Purity check and colony counts on each inoculum suspension was performed to ensure that the final inoculum concentration routinely obtained closely approximates 5×10^5 CFU/mL. In addition the assay is routinely monitored by testing standard antibiotics and ensuring that MIC values are within the recommended ranges for the respective strains.
(§2) This test permits comparisons to be made between bacterial growth in the presence of antibiotic alone and bacterial growth in the presence of both an antibiotic and a novel (test) compound.

[3] = test system: Klebsiella pneumoniae TEM-30; assay: as above
Procedure: (§3) The MIC experiments were performed in duplicate in 96-well microtiter plates using CAMHB. Serial twofold dilutions of each antibiotic either alone or in combination with constant concentration ratio of a β-lactamase inhibitor (2:1) were prepared in CAMHB. The bacterial suspension with final inoculum 10^5 CFU/mL was transferred to the test medium containing the antibacterial substances. In each well of a 96-well microtiter plate was combined 50 μL of bacterial inoculum, 50 μL of antibiotic dilutions (or media for determination of the MIC of the antibiotic in the absence of test compound). Each plate included 4 wells with no bacterial inoculum (negative control) and 4 wells with no test compound and no antibiotic (positive control). The plates were incubated at 35° C. for 24 h. Purity check and colony counts on each inoculum suspension was performed to ensure that the final inoculum concentration routinely obtained closely approximates 5×10^5 CFU/mL. In addition the assay is routinely monitored by testing standard antibiotics and ensuring that MIC values are within the recommended ranges for the respective strains.
as §2

[4] = test system: Klebsiella pneumoniae TEM-1, SHV-5; assay: as above
Procedure: as §3, §2

[5] = test system: Escherichia coli TEM-32; assay: as above
Procedure: as §3, §2

[6] = test system: Escherichia coli TEM-34; assay: as above
Procedure: as §3, §2

[7] = test system: Aeromonas hydrophila AER-1; assay: as above
Procedure: as §3, §2

[8] = test system: Salmonella spp. DHA-1; assay: as above
Procedure: as §3, §2

[9] = test system: Escherichia coli OXA-4; assay: as above
Procedure: as §3, §2

[10] = test system: Pseudomonas aeruginosa NPS-1; assay: as above
Procedure: as §3, §2

[11] = test system: Klebsiella pneumoniae LAT-2; assay: as above
Procedure: as §1, §2

[12] = test system: Escherichia coli SHV-1; assay: as above
Procedure: as §1, §2

[13] = test system: Escherichia coli OXA-1; assay: as above
Procedure: as §1, §2

[14] = test system: Escherichia coli FOX-2; assay: as above
Procedure: as §1, §2

[15] = test system: Escherichia coli TEM-36; assay: as above
Procedure: as §1, §2

[16] = test system: Pseudomonas aeruginosa OXA-6; assay: as above
Procedure: as §1, §2

[17] = test system: Klebsiella pneumoniae TEM-10; assay: as above
Procedure: as §1, §2

[18] = test system: Klebsiella pneumoniae TEM-1 hyperproduced
Procedure: as §1, §2

[19] = test system: E. coli TEM-3; conditions: β-lactamase TEM-3 (Table 3 r16), inhibitor constant 4 μg/mL
Procedure: Stock solutions of the test compounds and control antibiotics were prepared in distilled water according to the NCCLS guidelines [Methods for dilution antimicrobial tests for bacteria that grow aerobically. NCCLS document M7-A5; 2000; vol. 19. National Committee for Clinical Laboratory Standards, Villanova, Pa.]. All drug weights were corrected for salt forms and refer to the pure drug substance.
All tested strains and Clinical isolates were either purchased from the American Type Culture Collection (ATCC), or from the in-house company culture collection.
Stock cultures were prepared from broth cultures grown at 35° C. for 18-22 h without agitation and subsequent addition of 5% DMSO (v/v, final concentration) as cryoprotectant and stored frozen in liquid nitrogen. Mueller-Hinton II broth (MHBII) (BBL Cockeysville, Md.) was used for the testing procedure.
The in vitro activities of the antibiotics were determined by the broth microdilution method and agar dilution technique as recommended by CLSI guidelines. The MIC experiments were performed in duplicate in 96-well microtiter plates using MHB. Serial twofold dilutions of each antibiotic either alone or in combination with a constant amount (4 μg/mL) of a β-lactamase inhibitor were prepared in MHBII broth. A sterile pipette tip was used to mix the contents of each well (one tip was used going from the low to the high concentration in the same column). The bacterial suspension with final inoculum 10^5 CFU/mL was transferred to the test medium containing the antibacterial substances by a multipoint inoculator (Dynatech, Chantilly, Va., USA). The plates were then incubated at 35° C. for 24 h.
Representative compound of Formula (I) was evaluated against the serine-based Class A β-lactamases including TEM-type, SHV-type extended spectrum β-lactamases (ESBL) and various non-ESBL enzymes of enterobacteriaceae as well as BRO-type enzymes of Moraxella catarrhalis and penicillinases of Staphylococcus aureus.

[20] = Table 6, LK-157 at constant 4 μg/mL in combination
[21] = Table 7, combination at constant concentration ratio (2:1)

`CO/N=C(\C(=O)N[C@@H]1C(=O)N2C(C(=O)[O-])=C(C[N+]3(C)CCCC3)CS[C@H]12)c1csc(N)n1` [cefepime] gave an MIC [1] of 25.6 µg/mL, an MIC ([2]; Escherichia coli TEM-9, functional group 2be, LK-157 in combination constant 4 μg/mL) of 128 µg/mL and an MIC ([3]; Klebsiella pneumoniae TEM-30, functional group 2br, LK-157 in combination constant 4 μg/mL) of 0.125 µg/mL. For the same compound, the MIC ([4]; Klebsiella pneumoniae TEM-1, SHV-5, functional group 2b, 2e, LK-157 in combination constant 4 μg/mL) was 16 µg/mL, the MIC ([5]; Escherichia coli TEM-32, functional group 2br, LK-157 in combination constant 4 μg/mL) was 0.125 µg/mL and the MIC ([6]; Escherichia coli TEM-34, functional group 2br, LK-157 in combination constant 4 μg/mL) was 0.063 µg/mL. The MIC ([7]; Aeromonas hydrophila AER-1, functional group 2c, LK-157 in combination constant 4 μg/mL) was 0.5 µg/mL, the MIC ([8]; Salmonella spp. DHA-1, functional group 1, LK-157 in combination constant 4 μg/mL) was 1 µg/mL and the MIC ([9]; Escherichia coli OXA-4, functional group 2d, LK-157 in combination constant 4 μg/mL) was 0.5 µg/mL. The MIC ([10]; Pseudomonas aeruginosa NPS-1, functional group 2a, LK-157 in combination constant 4 μg/mL) was 8 µg/mL.
Compound `CO/N=C(\C(=O)N[C@@H]1C(=O)N2C(C(=O)O)=C(COC(C)=O)CS[C@H]12)c1csc(N)n1` [cefotaxime] has an MIC [1] greater than 25.6 µg/mL, an MIC [11, 20] of 16 µg/mL and an MIC [12, 20] of 0.063 µg/mL. The MIC [13, 20] was 0.5 µg/mL, the MIC [14, 20] was 64 µg/mL and the MIC [15, 20] was 0.25 µg/mL. The MIC [16, 20] was 16 µg/mL, the MIC [17, 20] was 0.5 µg/mL and the MIC [18, 20] was 0.063 µg/mL. The MIC ([3]; Table 6, Klebsiella pneumoniae TEM-30, LK-157 at constant 4 μg/mL in combination) was 0.031 µg/mL, the MIC ([4]; Table 6, Klebsiella pneumoniae TEM-1, SHV-5, LK-157 at constant 4 μg/mL in combination) was 32 µg/mL and the MIC ([6]; Table 6, Escherichia coli TEM-34, LK-157 at constant 4 μg/mL in combination) was 0.031 µg/mL. For the same compound, the MIC ([8]; Table 6, Salmonella spp. DHA-1, LK-157 at constant 4 μg/mL in combination) was 32 µg/mL and the MIC ([10]; Table 6, Pseudomonas aeruginosa NPS-1, LK-157 at constant 4 μg/mL in combination) was 16 µg/mL.
In the case of `CC(C)(O/N=C(\C(=O)N[C@@H]1C(=O)N2C(C(=O)[O-])=C(C[n+]3ccccc3)CS[C@H]12)c1csc(N)n1)C(=O)O` [ceftazidime], the MIC [11, 21] is reported as “≧128 μg/mL”, the MIC [12, 21] is reported as 0.25 µg/mL and the MIC [13, 21] is reported as 0.25 µg/mL. The MIC ([2]; Table 7, Escherichia coli TEM-9, combination at constant concentration ratio (2:1)) was “≧128 μg/mL”, the MIC [14, 21] was “≧128 μg/mL” and the MIC [15, 21] was 0.5 µg/mL. For the same compound, the MIC [16, 21] was 2 µg/mL, the MIC [17, 21] was “≧128 μg/mL” and the MIC [18, 21] was 0.25 µg/mL. For the same compound, the MIC ([5]; Table 7, Escherichia coli TEM-32, combination at constant concentration ratio (2:1)) was 0.25 µg/mL, the MIC ([7]; Table 7, Aeromonas hydrophila AER-1, combination at constant concentration ratio (2:1)) was 0.25 µg/mL and the MIC ([9]; Table 7, Escherichia coli OXA-4, combination at constant concentration ratio (2:1)) was 0.5 µg/mL. For the same compound, the MIC [19] was greater than 25.6 µg/mL.
